From ChEMBL document CHEMBL1201862, “PubChem BioAssay data set” (2004)
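Tested at 5 concentrations; 48 h exposure; 96-well plates; endpoints linearly interpolated, else capped at highest concentration. At the GI50, growth is halved.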 The source made the active and inactive calls. Rule as the data show it: active = GI50 up to about 1.1 µM and inactive = higher.

Columns and labels:
Test in all cases: DTP human tumour cell line panel, 48 h
M14 = tested on: M14
SN12C = tested on: SN12C
RXF 393 = tested on: RXF 393
SK-OV-3 = tested on: SK-OV-3
Hs-578T = tested on: Hs-578T
COLO 205 = tested on: COLO 205
SF-539 = tested on: SF-539
HOP-62 = tested on: HOP-62
T47D = tested on: T47D
SF-268 = tested on: SF-268
NCI-H460 = tested on: NCI-H460
OVCAR-5 = tested on: OVCAR-5
EKVX = tested on: EKVX
LOX IMVI = tested on: LOX IMVI
DU-145 = tested on: DU-145
CAKI-1 = tested on: CAKI-1
HL-60 = tested on: HL-60
UO-31 = tested on: UO-31
SW-620 = tested on: SW-620
HCC 2998 = tested on: HCC 2998

Measured: GI50

Cc1nc2[nH]ccn2c(=O)c1CCO
inactive: M14 > 10 µM | SN12C > 10 µM | RXF 393 > 10 µM | SK-OV-3 > 10 µM | Hs-578T > 10 µM | COLO 205 > 10 µM | SF-539 > 10 µM | HOP-62 > 10 µM | T47D > 10 µM | SF-268 > 10 µM | NCI-H460 > 10 µM | OVCAR-5 > 10 µM | EKVX > 10 µM | LOX IMVI > 10 µM | DU-145 > 10 µM | CAKI-1 > 10 µM | HL-60 > 10 µM | UO-31 > 10 µM | SW-620 > 10 µM

CC(C)c1ccccc1SC1CC(=O)CC(Sc2ccccc2C(C)C)C12O[C@H](c1ccccc1)[C@@H](c1ccccc1)O2 (stereo partly drawn)
inactive: M14 21.5 µM | SN12C 22.6 µM | RXF 393 19.9 µM | SK-OV-3 > 100 µM | COLO 205 71.6 µM | SF-539 57.1 µM | HCC 2998 36 µM | HOP-62 > 100 µM | T47D 28.6 µM | NCI-H460 > 100 µM | OVCAR-5 > 100 µM | EKVX > 100 µM | LOX IMVI 30.1 µM | DU-145 76.2 µM | CAKI-1 26.3 µM | HL-60 12.3 µM | SW-620 39.2 µM

COc1c(C(C)(C)C)cc(CC2C(=O)C=CC2=O)cc1C(C)(C)C
inactive: M14 17.9 µM | SN12C 26.5 µM | RXF 393 14.8 µM | SK-OV-3 25.1 µM | Hs-578T 27 µM | COLO 205 6.75 µM | SF-539 11.1 µM | HOP-62 18.4 µM | T47D 4.18 µM | SF-268 19.1 µM | NCI-H460 20.2 µM | OVCAR-5 18.3 µM | EKVX 17.7 µM | LOX IMVI 11.1 µM | DU-145 6.53 µM | CAKI-1 15.3 µM | HL-60 4.34 µM | UO-31 8.61 µM | SW-620 6.92 µM

O=C(Nc1ccc2nc(O)n[n+]([O-])c2c1)C(F)(F)F
inactive: M14 > 100 µM | SN12C > 100 µM | SK-OV-3 > 100 µM | Hs-578T > 100 µM | COLO 205 > 100 µM | SF-539 > 100 µM | HOP-62 > 100 µM | T47D > 100 µM | SF-268 > 100 µM | NCI-H460 > 100 µM | OVCAR-5 > 100 µM | EKVX > 100 µM | LOX IMVI > 100 µM | DU-145 > 100 µM | CAKI-1 > 100 µM | HL-60 > 100 µM | UO-31 > 100 µM | SW-620 > 100 µM
